We go through 28 molecules from patent US8217029B2, “Oxazolidinone antibiotics” (Actelion Pharmaceuticals Ltd, priority 2007, dated 2012).

≈ marks a conversion by molar mass, not a printed value.

In the experiment the test system is S aureus A798. Kind of experiment: Minimal inhibitory concentration (MIC), microdilution method in cation-adjusted Mueller-Hinton Broth following NCCLS guidelines. The format is cell-based. The settings on record: pH of test medium 7.2-7.3. A digest of the protocol:
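MICs (mg/l) came from NCCLS-guided microdilution, using cation-adjusted Mueller-Hinton medium adjusted to pH 7.2-7.3.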
In turn, `COc1ccc2ncc(F)c(N3CCN(C[C@@H]4CN(c5ccc6c(c5)NC(=O)CO6)C(=O)O4)CC3)c2n1` [Example 97, 6-{(R)-5-[4-(3-Fluoro-6-methoxy-[1,5]naphthyridin-4-yl)-piperazin-1-ylmethyl]-2-oxo-oxazolidin-3-yl}-4H-benzo[1,4]oxazin-3-one] showed an MIC of no more than 0.031 µg/mL.
Consider `COc1ccc2nccc(N3CC[C@@H]4CN(C[C@@H]5CN(c6ccc7c(c6)NC(=O)CS7)C(=O)O5)C[C@@H]43)c2n1` (relative stereo) [Example 91, 6-{{(R)-5-[(3aR*,6aR*)-1-(6-Methoxy-[1,5]naphthyridin-4-yl)-hexahydro-pyrrolo[3,4-b]pyrrol-5-yl]-methyl}-2-oxo-oxazolidin-3-yl}-4H-benzo[1,4]thiazin-3-one], for which the “MIC S aureus A798” value is on record as “<=0.031 mg/l”.
On to `COc1ccc2nccc(C3(O)CCN(C[C@@H]4CN(c5ccc6c(c5)NC(=O)CS6)C(=O)O4)CC3)c2c1` [Example 125, 6-{(R)-5-[4-Hydroxy-4-(6-methoxy-quinolin-4-yl)-piperidin-1-ylmethyl]-2-oxo-oxazolidin-3-yl}-4H-benzo[1,4]thiazin-3-one], for which the minimum inhibitory concentration (MIC) was no more than 0.031 µg/mL.
`CCOc1ccc(N2C[C@@H](CNC3CCN(c4ccnc5ccc(OC)nc45)CC3)OC2=O)cc1` [Example 184, (R)-3-(4-Ethoxy-phenyl)-5-{[1-(6-methoxy-[1,5]naphthyridin-4-yl)-piperidin-4-ylamino]-methyl}-oxazolidin-2-one] showed an MIC of 0.5 µg/mL (≈ 1.05 µM).
`COc1ccc2ncc(F)c(N3CC[C@H](NC[C@@H]4CN(c5ccc6c(c5)OCCO6)C(=O)O4)C3)c2n1` [Example 66, (R)-3-(2,3-Dihydro-benzo[1,4]dioxin-6-yl)-5-{[(5)-1-(3-fluoro-6-methoxy-[1,5]naphthyridin-4-yl)-pyrrolidin-3-ylamino]-methyl}-oxazolidin-2-one]: the “MIC S aureus A798” value is reported as “<=0.031 mg/l”.
The molecule `COc1ccc2nccc(N3CC(NC[C@@H]4CN(c5ccc6c(c5)NC(=O)CO6)C(=O)O4)C3)c2n1` [Example 52, 6-((R)-5-{[1-(6-Methoxy-[1,5]naphthyridin-4-yl)-azetidin-3-ylamino]-methyl}-2-oxo-oxazolidin-3-yl)-4H-benzo[1,4]oxazin-3-one] showed an MIC of no more than 0.031 µg/mL.
In turn, `COc1ccc2nccc(N3CCN(CC4CN(c5ccc6ccc(=O)[nH]c6c5)C(=O)O4)CC3)c2n1` (racemic) [Example 111, (RS)-7-{5-[4-(6-Methoxy-[1,5]naphthyridin-4-yl)-piperazin-1-ylmethyl]-2-oxo-oxazolidin-3-yl}-1H-quinolin-2-one] registered a minimal inhibitory concentration (MIC) of 0.125 µg/mL (≈ 0.257 µM).
Turning to `COc1ccc2nccc(N3CCN(C[C@@H]4CN(c5cccc(N(C)C)c5)C(=O)O4)CC3)c2n1` [Example 34, (R)-3-(3-Dimethylamino-phenyl)-5-[4-(6-methoxy-[1,5]naphthyridin-4-yl)-piperazin-1-ylmethyl]-oxazolidin-2-one], the MIC turned out to be 0.125 µg/mL (≈ 0.27 µM).
The same measure, in the same setting: to `CCOc1ccc(N2C[C@@H](CNC3CN(c4ccnc5ccc(OC)nc45)C3)OC2=O)cc1` [Example 175, (R)-3-(4-Ethoxy-phenyl)-5-{[1-(6-methoxy-[1,5]naphthyridin-4-yl)-azetidin-3-ylamino]-methyl}-oxazolidin-2-one] belongs no more than 0.031 µg/mL; to `COc1ccc2nccc(N3CC(CNC[C@H]4CN(c5ccc6c(c5)NC(=O)CS6)C(=O)O4)C3)c2n1` [Example 59, 6-[(S)-5-({[1-(6-Methoxy-[1,5]naphthyridin-4-yl)-azetidin-3-ylmethyl]-amino}-methyl)-2-oxo-oxazolidin-3-yl]-4H-benzo[1,4]thiazin-3-one], no more than 0.031 µg/mL.
The same measure, in the same setting: the same measure for `COc1ccc2nccc(N3CC[C@H](NC[C@@H]4CN(c5ccc6c(c5)NC(=O)CS6)C(=O)O4)C3)c2c1` [Example 172, 6-((R)-5-{[(S)-1-(6-Methoxy-quinolin-4-yl)-pyrrolidin-3-ylamino]-methyl}-2-oxo-oxazolidin-3-yl)-4H-benzo[1,4]thiazin-3-one]: no more than 0.031 µg/mL; for `COc1ccc2nccc(N3CCN(C[C@@H]4CN(c5ccc(F)cc5)C(=O)O4)CC3)c2n1` [Example 15, (R)-3-(4-Fluoro-phenyl)-5-[4-(6-methoxy-[1,5]naphthyridin-4-yl)-piperazin-1-ylmethyl]-oxazolidin-2-one]: 0.25 µg/mL (≈ 0.571 µM).
`COc1ccc2nccc(N3C[C@H](NC[C@@H]4CN(c5ccc6c(c5)NC(=O)CO6)C(=O)O4)[C@@H](OC)C3)c2n1` [Example 181, 6-((R)-5-{[(3S,4S)-4-Methoxy-1-(6-methoxy-[1,5]naphthyridin-4-yl)-pyrrolidin-3-ylamino]-methyl}-2-oxo-oxazolidin-3-yl)-4H-benzo[1,4]oxazin-3-one] yielded a minimum inhibitory concentration (MIC) of 0.25 µg/mL (≈ 0.48 µM).
As for `COc1ccc2nccc(N3CCCN(C[C@@H]4CN(c5ccc6c(c5)OCCO6)C(=O)O4)CC3)c2n1` [Example 107, (R)-3-(2,3-Dihydro-benzo[1,4]dioxin-6-yl)-5-[4-(6-methoxy-[1,5]naphthyridin-4-yl)-[1,4]diazepan-1-ylmethyl]-oxazolidin-2-one], the MIC was no more than 0.031 µg/mL.
Molecule `COc1ccc2ncc(F)c(N3CC(NC[C@@H]4CN(c5cc6c(cc5F)SCC(=O)N6)C(=O)O4)C3)c2n1` [Example 155, 7-Fluoro-6-((R)-5-{[1-(3-fluoro-6-methoxy-[1,5]naphthyridin-4-yl)-azetidin-3-ylamino]-methyl}-2-oxo-oxazolidin-3-yl)-4H-benzo[1,4]thiazin-3-one] had an MIC of no more than 0.031 µg/mL.
The same measure, in the same setting: the same measure for `COc1ccc2nccc(N3CCN(C(=O)C[C@@H]4CN(c5ccc6c(c5)NC(=O)CS6)C(=O)O4)CC3)c2n1` [Example 114, 6-((R)-5-{2-[4-(6-Methoxy-[1,5]naphthyridin-4-yl)-piperazin-1-yl]-2-oxo-ethyl}-2-oxo-oxazolidin-3-yl)-4H-benzo[1,4]thiazin-3-one]: no more than 0.031 µg/mL; for `COc1ccc2nccc(N3CC(N(C)C[C@@H]4CN(c5ccc6c(n5)NC(=O)CO6)C(=O)O4)C3)c2n1` [Example 150, 6-[(R)-5-({[1-(6-Methoxy-[1,5]naphthyridin-4-yl)-azetidin-3-yl]-methyl-amino}-methyl)-2-oxo-oxazolidin-3-yl]-4H-pyrido[3,2-b][1,4]oxazin-3-one]: no more than 0.031 µg/mL.
For the molecule `COc1ccc2nccc(N3C[C@H](NC[C@@H]4CN(c5ccc6c(c5)NC(=O)CS6)C(=O)O4)[C@@H](OC)C3)c2n1` [Example 182, 6-((R)-5-{[(3S,4S)-4-Methoxy-1-(6-methoxy-[1,5]naphthyridin-4-yl)-pyrrolidin-3-ylamino]-methyl}-2-oxo-oxazolidin-3-yl)-4H-benzo[1,4]thiazin-3-one], the minimum inhibitory concentration (MIC) is no more than 0.031 µg/mL.
`COc1ccc2nccc(N3CC(CNC(=O)[C@@H]4CN(c5ccc6c(c5)OCCO6)C(=O)O4)C3)c2n1` [Example 2, (S)-3-(2,3-Dihydro-benzo[1,4]dioxin-6-yl)-2-oxo-oxazolidine-5-carboxylic acid[1-(6-methoxy-[1,5]naphthyridin-4-yl)-azetidin-3-ylmethyl]-amide]: the “MIC S aureus A798” value was 4 mg/L (≈ 8.14 µM).
For `COc1ccc2nccc(N3CCN(C[C@@H]4CN(c5ccc(OC)c(Cl)c5)C(=O)O4)CC3)c2n1` [Example 28, (R)-3-(3-Chloro-4-methoxy-phenyl)-5-[4-(6-methoxy-[1,5]naphthyridin-4-yl)-piperazin-1-ylmethyl]-oxazolidin-2-one], the MIC was 1 µg/mL (≈ 2.07 µM).
Still for that read-out and setting: to `COc1ccc2nccc(N3CCN(C[C@@H]4CN(c5ccc(OC)c(OC)c5)C(=O)O4)CC3)c2n1` [Example 14, (R)-3-(3,4-Dimethoxy-phenyl)-5-[4-(6-methoxy-[1,5]naphthyridin-4-yl)-piperazin-1-ylmethyl]-oxazolidin-2-one] belongs 2 µg/mL (≈ 4.17 µM).
On to `COc1ccc2nccc(N3CC[C@H](NC(=O)[C@@H]4CN(c5ccc(C)c(F)c5)C(=O)O4)C3)c2n1` [Example 63, (S)-3-(3-Fluoro-4-methyl-phenyl)-2-oxo-oxazolidine-5-carboxylic acid [(S)-1-(6-methoxy-[1,5]naphthyridin-4-yl)-pyrrolidin-3-yl]-amide], for which 0.25 µg/mL (≈ 0.537 µM) was the least that counted as inhibitory (MIC).
Molecule `COc1ccc2nccc(N3CCC(NC[C@@H]4CN(c5ccc6c(c5)NC(=O)CO6)C(=O)O4)CC3)c2n1` [Example 120, 6-((R)-5-{[1-(6-Methoxy-[1,5]naphthyridin-4-yl)-piperidin-4-ylamino]-methyl}-2-oxo-oxazolidin-3-yl)-4H-benzo[1,4]oxazin-3-one] yielded an MIC of no more than 0.031 µg/mL.
For `COc1ccc2nccc(N3CCC(NC[C@H]4CN(c5ccc6c(c5)NC(=O)CS6)C(=O)O4)CC3)c2n1` [Example 165, 6-((S)-5-{[1-(6-Methoxy-[1,5]naphthyridin-4-yl)-piperidin-4-ylamino]-methyl}-2-oxo-oxazolidin-3-yl)-4H-benzo[1,4]thiazin-3-one], the minimal inhibitory concentration (MIC) was no more than 0.031 µg/mL.
Molecule `COc1ccc2nccc(N3CC[C@@H]4CN(C(=O)[C@@H]5CN(c6ccc7c(c6)OCCO7)C(=O)O5)C[C@@H]43)c2n1` (mixture of isomers) [Example 92, (S)-3-(2,3-Dihydro-benzo[1,4]dioxin-6-yl)-5-[(3aR*,6aR*)-1-(6-methoxy-[1,5]naphthyridin-4-yl)-hexahydro-pyrrolo[3,4-b]pyrrole-5-carbonyl]-oxazolidin-2-one] returned an MIC of 0.25 µg/mL.
`O=C1CSc2ccc(N3C[C@@H](CN[C@@H]4CCN(c5ccnc6ccc(F)cc56)C4)OC3=O)cc2N1` [Example 177, 6-((R)-5-{[(R)-1-(6-Fluoro-quinolin-4-yl)-pyrrolidin-3-ylamino]-methyl}-2-oxo-oxazolidin-3-yl)-4H-benzo[1,4]thiazin-3-one] registered a minimal inhibitory concentration (MIC) of 0.125 µg/mL (≈ 0.253 µM).
In turn, `COc1ccc2nccc(N3CC(CNCCC4CN(c5ccc(C)c(F)c5)C(=O)O4)C3)c2n1` (racemic) [Example 149, (RS)-3-(3-Fluoro-4-methyl-phenyl)-5-(2-{[1-(6-methoxy-[1,5]naphthyridin-4-yl)-azetidin-3-ylmethyl]-amino}-ethyl)-oxazolidin-2-one] returned a minimal inhibitory concentration (MIC) of 0.063 µg/mL (≈ 0.135 µM). This MIC lies about 2-fold lower than the previous one.
Turning to `COc1ccc2nccc(N3CC(N(C)C[C@@H]4CN(c5cc6c(nn5)OCCO6)C(=O)O4)C3)c2n1` [Example 153, (R)-3-(6,7-Dihydro-[1,4]dioxino[2,3-c]pyridazin-3-yl)-5-({[1-(6-methoxy-[1,5]naphthyridin-4-yl)-azetidin-3-yl]-methyl-amino}-methyl)-oxazolidin-2-one], the MIC was found to be 4 µg/mL (≈ 8.34 µM).

One may read the MIC as the smallest concentration in the dilution series that meets the test's criterion for growth inhibition.
